# Assay results: ChEMBL document CHEMBL4619813, “Virtual Screening for Ligand Discovery at the σ1 Receptor” (ACS Med Chem Lett, 2020)
# How the values were obtained:
# [1] = target: Sigma non-opioid intracellular receptor 1 (Homo sapiens, UniProt Q99720); assay: Displacement of [3H](+)-pentazocine from recombinant sigma 1 receptor (unknown origin) expressed in baculovirus infected Sf9 cell membranes after 1.5 hrs by scintillation counting analysis
# [2] = target: Sigma intracellular receptor 2 (Homo sapiens, UniProt Q5BJF2); assay: Displacement of [3H](+)-DTG from recombinant sigma 2 receptor (unknown origin) expressed in baculovirus infected Sf9 cell membranes after 1.5 hrs by scintillation counting analysis
# [3] = Selectivity ratio of Ki for displacement of [3H](+)-DTG from recombinant sigma 2 receptor (unknown origin) expressed in baculovirus infected Sf9 cell membranes to Ki for displacement of [3H](+)-pentazocine from recombinant sigma 1 receptor (unknown origin) expressed in baculovirus infected Sf9 cell membranes; settings: Homo sapiens
# Sequence of Sigma intracellular receptor 2 (Q5BJF2 whole entry): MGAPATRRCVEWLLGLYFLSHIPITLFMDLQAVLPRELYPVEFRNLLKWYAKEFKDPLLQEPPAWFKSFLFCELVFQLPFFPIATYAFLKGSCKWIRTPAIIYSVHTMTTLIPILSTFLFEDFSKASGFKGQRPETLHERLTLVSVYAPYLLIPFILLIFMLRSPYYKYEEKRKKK
# Sequence of Sigma non-opioid intracellular receptor 1 (Q99720 whole entry): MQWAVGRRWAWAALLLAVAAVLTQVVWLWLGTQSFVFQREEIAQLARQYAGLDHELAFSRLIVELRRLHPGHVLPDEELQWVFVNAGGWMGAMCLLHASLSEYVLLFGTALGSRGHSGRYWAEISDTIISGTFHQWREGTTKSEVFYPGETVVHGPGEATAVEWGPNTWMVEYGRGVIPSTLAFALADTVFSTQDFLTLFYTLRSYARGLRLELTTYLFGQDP
SMILES,Ki [1],Ki [2],Ratio Ki [3],Kd [1],Kd [2]
Fc1ccc(CN2CCCN(C(=S)Nc3cc(F)cc(F)c3)C2)cc1,23 nM,949 nM,41.3,–,–
FC(F)(F)c1cccc(N2CCC(/N=C/c3ccc(Br)cc3)N2)c1 (stereo not given),–,–,–,> 1000 nM,> 1000 nM
O=C(c1ccc(C(F)(F)F)cc1)N1CCN(Cc2ccccc2)CC1,915 nM,–,–,–,–
CC(CCc1c[nH]c2ccccc12)NC1CCN(C(=O)C(C)C)CC1 (stereo not given),–,–,–,> 1000 nM,> 1000 nM
OC1COCCC1NC1CCN(c2ccc(C(F)(F)F)cn2)CC1 (stereo not given),18 nM,15 nM,0.8,–,–

# More lines, now with the values ahead:
Ki [1],Ki [2],Ratio Ki [3],Kd [1],Kd [2],SMILES
164 nM,985 nM,6,–,–,Cc1nn(-c2ccccc2Cl)c(Cl)c1CNCc1cc(F)cc(F)c1
191 nM,–,–,–,–,FC(F)(F)c1cccc(-c2ccc(CNCc3cccnc3)o2)c1
89 nM,2950 nM,33.2,–,–,Cc1[nH]c2cc(C(F)(F)F)ccc2c(=O)c1CN(C)Cc1ccccc1
127 nM,2370 nM,18.7,–,–,Cc1nn(CCO)cc1CN(C)Cc1csc(-c2ccccc2)n1
220 nM,250 nM,1.1,–,–,NC(=O)c1cccc(CNC2CCN(c3ccc(F)c(Cl)c3)C2)c1 (stereo not given)
–,–,–,> 1000 nM,> 1000 nM,Cc1c(C(=O)NC(CN(C)C)c2ccccc2)cnn1-c1ccc(F)cc1 (stereo not given)
–,–,–,> 1000 nM,> 1000 nM,O=C(c1c[nH]c2ccccc12)N1CCC(N2CCc3ccccc3C2)C1 (stereo not given)
–,–,–,> 1000 nM,> 1000 nM,NC(Cc1ccccc1)C(=O)N1CCN(c2ccc3nccn3n2)CC1 (stereo not given)
